Results reported in article PMC3835493, “Acetylshikonin, a Novel AChE Inhibitor, Inhibits Apoptosis via Upregulation of Heme Oxygenase-1 Expression in SH-SY5Y Cells” (Evidence-based Complementary and Alternative Medicine : eCAM, 2013).
Read-outs that look alike come from different tables or passages of the source.

Columns and labels:
human recombinant AChE = molecular target: T1, human recombinant AChE (Homo sapiens, UniProt P22303); test: AChE inhibition, Ellman assay; format: biochemical; conditions: 37°C
T1 construct: made in house
Method: Candidate phytochemicals dissolved in DMSO were tested for AChE inhibitory activity by the Ellman assay with minor modifications. Ten μL of human recombinant AChE (prepared in-house) and 1 μL of drug were added into 190 μL of PBS buffer (100 mM, pH 7.4) and incubated in a 96-well plate at 37°C for 10 min. […] After 10 min incubation with the substrate, the optical densities were measured in a 96-well plate reader at 412 nm. The optical density was inversely proportional to the inhibitory activity. By contrast, a blank control without the tested compound was also performed in parallel; the normal hydrolytic rate of the enzyme can be represented by the blank control. Each assay was performed in triplicate.
The percentage inhibitory activities of the various compounds were calculated by comparison with the positive control and the blank control. […] Data analysis was performed with Prism software. Inhibitory effects were expressed as IC50 value calculated by regression analysis.

SH-SY5Y cells [1] = test: MTT cell viability, H2O2-induced cell death; format: cell-based, human
Method: (§1) Human neuroblastoma SH-SY5Y cells were from ATCC (Manassas, VA, usa) and maintained in DMEM/F-12 containing 10% FBS and maintained at 37°C with 95% humidified air and 5% CO2. Rat adrenal medulla pheochromocytoma PC12 cells were from ATCC (Manassas, VA, USA) and maintained in DMEM containing 10% FBS at 37°C with 95% humidified air and 5% CO2.
(§2) MTT colorimetric assay was performed to determine the cell viability. Cells were seeded in 96-well plates at a density of 5 × 10^3 cells/well and treated with test chemicals at desired concentration at 37°C for 12 hours. Subsequently, cells were stimulated with H2O2 (500 μM) for 4 hours. After the exposure period, the cells were incubated with 20 μL MTT (5 mg/mL) for 4 h. The cells were eluted with DMSO and quantified with a spectrophotometer (Ultramark Microplate Reader, Bio-Rad) at a wavelength of 590 nm.

PC12 cells [2] = test: MTT cell viability, H2O2-induced cell death; format: cell-based, rat
Method: as §1, §2

SH-SY5Y cells [3] = test: Cytotoxicity test by MTT without H2O2; format: cell-based, human; conditions: 10 μM, 12 h, no H2O2
Method: as §2
(§3) Figure 1 Potential AChE inhibitors of natural products attenuated H2O2-induced cell death in both SH-SY5Y and PC12 cells. SH-SY5Y (a) or PC12 (b) cells were cultured with desired concentration of H2O2 for 4 hours; the cell viability was detected by MTT. Data shown are means ± SEM of results from independent experiments in triplicate. *P < 0.05 compared with control cells. SH-SY5Y (c) or PC12 (d) cells were incubated with different potential AChE inhibitors (10 μM) for 12 hours and then stimulated with H2O2 (500 μM) for 4 hours, and the viability was detected by MTT. […] For cytotoxicity test, SH-SY5Y (e) or PC12 (f) cells were incubated with different potential AChE inhibitors (10 μM) for 12 hours, and the viability was detected by MTT. […]

PC12 cells [4] = test: Cytotoxicity test by MTT without H2O2; format: cell-based, rat; conditions: 10 μM, 12 h, no H2O2
Method: as §2, §3

SH-SY5Y cells [5] = test: Nuclear staining with Hoechst 33258 (apoptosis); format: cell-based, human; conditions: pretreatment 12 h, H2O2 4 h
Method: (§4) SH-SY5Y cells and PC12 cells (1 × 10^4 cells/well) in 24-well plates were preincubated with or without test chemicals for 12 hours and subsequently stimulated with H2O2 for the 4 hours. The nuclear morphology of apoptotic cells was measured by Hoechst 33258 nuclear staining according to the manufacturer's instructions. The nuclear morphological change was observed under a fluorescence microscope (Nikon Live Cell Imaging System Ti-E, Japan) using excitation/emission of 360/460 nm.

PC12 cells [6] = test: Nuclear staining with Hoechst 33258 (apoptosis); format: cell-based, rat; conditions: pretreatment 12 h, H2O2 4 h
Method: as §4

SH-SY5Y cells [7] = test: Intracellular ROS measurement (H2DCF-DA); format: cell-based, human; conditions: acetylshikonin 5 and 10 μM 12 h, H2O2 500 μM 2 h
Method: (§5) The cells were treated with desired concentration of acetylshikonin for 12 hours, and then the cells were stained with H2DCF-DA (10 μM) for 30 min. After 30 min staining, cells were stimulated with H2O2 (500 μM) for 2 h, and the fluorescence intensity of H2DCF-DA was measured/detected by a fluorescence spectrophotometer (M1000, TECAN, Austria GmbH, Austria) using excitation/emission of 485/530 nm and a fluorescence microscope (Nikon Live Cell Imaging System Ti-E, Japan) using excitation/emission of 490/530 nm, respectively. Fluorescence intensity of each group was normalized to the control group.

PC12 cells [8] = test: Intracellular ROS measurement (H2DCF-DA); format: cell-based, rat; conditions: acetylshikonin 5 and 10 μM 12 h, H2O2 500 μM 2 h
Method: as §5

SH-SY5Y cells [9] = test: Mitochondrial membrane potential (Rhodamine 123); format: cell-based, human; conditions: pretreatment 12 h, H2O2 500 μM 2 h
Method: as §5, with “were” for “were stained with H2DCF-DA (10 μM) for 30 min. After 30 min staining, cells were”, “2 h. Rhodamine 123 (2 μM) was added to cells after” for “2 h, and”, “the treatment for 30 min at 37°C. Fluorescence” for “the fluorescence”, “of Rhodamine 123” for “of H2DCF-DA”, “Japan) and” for “Japan)”

PC12 cells [10] = test: Mitochondrial membrane potential (Rhodamine 123); format: cell-based, rat; conditions: pretreatment 12 h, H2O2 500 μM 2 h
Method: as §5, with “were” for “were stained with H2DCF-DA (10 μM) for 30 min. After 30 min staining, cells were”, “2 h. Rhodamine 123 (2 μM) was added to cells after” for “2 h, and”, “the treatment for 30 min at 37°C. Fluorescence” for “the fluorescence”, “of Rhodamine 123” for “of H2DCF-DA”, “Japan) and” for “Japan)”

[11] = test system: Bcl-2, Bax, p53, caspase-3 in SH-SY5Y cells; test: Western blot of apoptosis-related proteins; format: cell-based, human; conditions: pretreatment 12 h, H2O2 500 μM 1 h
Method: (§6) Proteins in the total cell lysate were separated by 10% SDS polyacrylamide gel electrophoresis and electrotransferred to a polyvinylidene difluoride membrane (Immobilon-P membrane; Millipore, Bedford, MA, USA). After the blot was blocked in a solution of 5% bovine serum albumin, membrane was incubated overnight with primary antibodies against Bcl-2, Bax, Caspase-3, p53, HO-1, or beta-actin followed by incubation with horseradish peroxidase-conjugated secondary antibodies for 1 h. Specific bands were detected with ECL-plus western blotting detection reagent (GE Healthcare Bio-Sciences) and photographed with FujiFilm LAS-3000 (Fujifilm, Tokyo, Japan).

[12] = test system: Bcl-2, Bax, p53, caspase-3 in PC12 cells; test: Western blot of apoptosis-related proteins; format: cell-based, rat; conditions: pretreatment 12 h, H2O2 500 μM 1 h
Method: as §6

HO-1 in SH-SY5Y cells = test: Western blot of HO-1 expression; format: cell-based, human; conditions: acetylshikonin 12 h, H2O2 500 μM 1 h
Method: as §6

HO-1 in PC12 cells = test: Western blot of HO-1 expression; format: cell-based, rat; conditions: acetylshikonin 12 h, H2O2 500 μM 1 h
Method: as §6

[13] = IC50, human recombinant AChE, pH 7.4
[14] = acetylshikonin 1–10 μM 12 h, then H2O2 500 μM 4 h
[15] = test chemical 10 μM 12 h, then H2O2 500 μM 4 h
[16] = human recombinant AChE, pH 7.4, read-out: IC50
[17] = ZnPP 10 μM 2 h, acetylshikonin 12 h, H2O2 500 μM 4 h, MTT

T1 sequence (P22303 32-614): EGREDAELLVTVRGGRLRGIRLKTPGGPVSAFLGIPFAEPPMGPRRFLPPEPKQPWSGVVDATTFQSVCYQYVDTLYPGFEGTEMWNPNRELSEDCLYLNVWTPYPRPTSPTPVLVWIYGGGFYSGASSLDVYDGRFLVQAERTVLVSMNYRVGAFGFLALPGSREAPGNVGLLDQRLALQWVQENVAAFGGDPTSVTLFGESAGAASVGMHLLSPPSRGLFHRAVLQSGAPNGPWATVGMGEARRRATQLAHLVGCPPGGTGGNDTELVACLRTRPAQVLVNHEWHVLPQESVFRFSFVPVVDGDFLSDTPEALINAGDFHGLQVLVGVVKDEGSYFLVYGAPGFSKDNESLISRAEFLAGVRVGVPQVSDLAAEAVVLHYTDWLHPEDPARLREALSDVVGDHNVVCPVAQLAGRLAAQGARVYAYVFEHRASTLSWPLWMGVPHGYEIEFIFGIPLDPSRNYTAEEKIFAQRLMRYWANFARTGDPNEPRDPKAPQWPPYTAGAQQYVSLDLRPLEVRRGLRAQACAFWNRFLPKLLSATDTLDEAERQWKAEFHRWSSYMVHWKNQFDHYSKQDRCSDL

CC(=O)O[C@H](CC=C(C)C)C1=CC(=O)c2c(O)ccc(O)c2C1=O [Acetylshikonin]
IC50 (human recombinant AChE; [13]): 34.6 µM
H2O2-induced cell death and morphology change, dose dependence (SH-SY5Y cells [1]; [14]): dose dependently attenuated
H2O2-induced cell death (cell viability, MTT) (SH-SY5Y cells [1]; [15]): highest viability
H2O2-induced cell death and morphology change, dose dependence (PC12 cells [2]; [14]): dose dependently attenuated
H2O2-induced cell death (cell viability, MTT) (PC12 cells [2]; [15]): highest viability
Cytotoxicity in MTT assay (SH-SY5Y cells [3]): not observed
Cytotoxicity in MTT assay (PC12 cells [4]): not observed
H2O2-induced cell shrinkage and nuclear condensation (Hoechst 33258) (SH-SY5Y cells [5]): dramatically ameliorated
H2O2-induced cell shrinkage and nuclear condensation (Hoechst 33258) (PC12 cells [6]): dramatically ameliorated
H2O2-induced ROS generation (SH-SY5Y cells [7]): statistically declined
H2O2-induced ROS generation (PC12 cells [8]): statistically declined
H2O2-induced mitochondrial membrane potential loss (SH-SY5Y cells [9]): rescued by acetylshikonin in a dose-dependent manner
H2O2-induced mitochondrial membrane potential loss (PC12 cells [10]): rescued by acetylshikonin in a dose-dependent manner
Bax and p53 expression [11]: decreased
Bcl-2 expression [11]: increased expression
H2O2-induced decreased caspase-3 and increased cleaved caspase-3 [11]: rescued by acetylshikonin in a dose-dependent manner
Bax and p53 expression [12]: decreased
Bcl-2 expression [12]: increased expression
H2O2-induced decreased caspase-3 and increased cleaved caspase-3 [12]: rescued by acetylshikonin in a dose-dependent manner
HO-1 expression (HO-1 in SH-SY5Y cells): increased
HO-1 expression (HO-1 in PC12 cells): no impact

CC(C)=CCc1c2occc2c(O)c2ccc(=O)oc12 [Alloisoimperatorin]
IC50 (human recombinant AChE; [16]): 20.7 µM

O=C1c2cccc(O)c2C(=O)c2c(O)cc(CO)cc21 [Aloe-emodin]
IC50 (human recombinant AChE; [13]): 26.8 µM

Cc1cc(O)c2c(c1)C(=O)c1cccc(O)c1C2=O [Chrysophanol]
IC50 (human recombinant AChE; [13]): 75.8 µM

Cc1cc(O)c2c(c1)C(=O)c1cc(O)cc(O)c1C2=O [Emodin]
IC50 (human recombinant AChE; [13]): 21.8 µM

CC(C)=CCOc1c2occc2cc2ccc(=O)oc12 [Imperatorin]
IC50 (human recombinant AChE; human recombinant AChE, pH 7.4): Undetected

CC(C)=CCC(OC(=O)CC(C)C)C1=CC(=O)c2c(O)ccc(O)c2C1=O (stereo not shown) [Isovalerylshikonin]
IC50 (human recombinant AChE; [16]): 82.4 µM

COc1c2ccoc2c(OCC=C(C)C)c2oc(=O)ccc12 [Phellopterin]
IC50 (human recombinant AChE; [16]): 177 µM

O=C(O)c1cc(O)c2c(c1)C(=O)c1cccc(O)c1C2=O [Rhein]
IC50 (human recombinant AChE; [13]): 237 µM

CC(C)=CC[C@@H](O)C1=CC(=O)c2c(O)ccc(O)c2C1=O [Shikonin]
IC50 (human recombinant AChE; [13]): 71.8 µM

COc1c2occc2cc2ccc(=O)oc12 [Xanthotoxin]
IC50 (human recombinant AChE; human recombinant AChE, pH 7.4): 133 µM

C=CC1=C(C)c2cc3[n-]c(cc4[n-]c(cc5nc(cc1n2)C(C)=C5C=C)c(C)c4CCC(=O)O)c(CCC(=O)O)c3C.[Zn+2] [ZnPP, zinc protoporphyrin IX, reference compound]
Effect of ZnPP on protective effects of acetylshikonin on H2O2-induced cell death (SH-SY5Y cells [1]; [17]): reversed the protective effects
Effect of ZnPP on protective effects of acetylshikonin on H2O2-induced cell death (PC12 cells [2]; [17]): not observed

CC(C)=CCC(OC(=O)C=C(C)C)C1=CC(=O)c2c(O)ccc(O)c2C1=O (stereo not drawn) [β,β-Dimethylacrylshikonin]
IC50 (human recombinant AChE; human recombinant AChE, pH 7.4): 62.4 µM
